Reference: the NIST ThermoML archive (doi:10.1021/acs.jced.6b00350)
± gives the expanded uncertainty stated by the source.

Conditions: Liquid, Hot wire method

FC(F)CC(F)(F)F [1,1,1,3,3-pentafluoropropane]
Conditions | thermal conductivity [W/m/K]
302.4 K, 9755 kPa | 0.09135 ± 0.0012
302.4 K, 43574 kPa | 0.104 ± 0.0013
302.41 K, 9754 kPa | 0.09128 ± 0.0012
302.43 K, 27824 kPa | 0.09846 ± 0.0013
302.43 K, 35521 kPa | 0.1012 ± 0.0013
302.43 K, 35524 kPa | 0.1013 ± 0.0013
302.44 K, 27822 kPa | 0.09861 ± 0.0013
302.47 K, 4917 kPa | 0.08905 ± 0.0011
302.47 K, 4920 kPa | 0.08908 ± 0.0011
302.49 K, 21586 kPa | 0.09609 ± 0.0012
302.49 K, 21587 kPa | 0.09598 ± 0.0012
302.51 K, 297 kPa | 0.08675 ± 0.0011
302.52 K, 295 kPa | 0.08688 ± 0.0011
302.57 K, 15359 kPa | 0.09341 ± 0.0012
302.57 K, 15368 kPa | 0.0935 ± 0.0012
302.68 K, 68021 kPa | 0.1116 ± 0.0014
302.68 K, 68023 kPa | 0.1115 ± 0.0014
302.69 K, 62436 kPa | 0.1101 ± 0.0014
302.7 K, 62429 kPa | 0.1097 ± 0.0014
302.76 K, 52483 kPa | 0.107 ± 0.0014
302.76 K, 52489 kPa | 0.1069 ± 0.0014
302.81 K, 43572 kPa | 0.104 ± 0.0013
302.82 K, 43572 kPa | 0.1041 ± 0.0013
302.85 K, 35512 kPa | 0.1012 ± 0.0013
302.85 K, 35521 kPa | 0.1013 ± 0.0013
302.87 K, 9749 kPa | 0.09105 ± 0.0012
302.87 K, 9754 kPa | 0.091 ± 0.0012
302.88 K, 27813 kPa | 0.09844 ± 0.0013
302.88 K, 27817 kPa | 0.09814 ± 0.0013
302.93 K, 4918 kPa | 0.08893 ± 0.0011
302.93 K, 4920 kPa | 0.0888 ± 0.0011
302.94 K, 21581 kPa | 0.09604 ± 0.0012
302.94 K, 21589 kPa | 0.09618 ± 0.0012
302.99 K, 297 kPa | 0.08639 ± 0.0011
302.99 K, 298 kPa | 0.08647 ± 0.0011
303.03 K, 15369 kPa | 0.09337 ± 0.0012
303.04 K, 15370 kPa | 0.09341 ± 0.0012
303.11 K, 68011 kPa | 0.1115 ± 0.0014
303.12 K, 68009 kPa | 0.1114 ± 0.0014
303.13 K, 62430 kPa | 0.11 ± 0.0014
303.13 K, 62436 kPa | 0.11 ± 0.0014
303.21 K, 52481 kPa | 0.1068 ± 0.0014
303.21 K, 52487 kPa | 0.1068 ± 0.0014
303.27 K, 43574 kPa | 0.104 ± 0.0013
303.27 K, 43576 kPa | 0.1041 ± 0.0013
303.33 K, 35513 kPa | 0.1011 ± 0.0013
303.33 K, 35514 kPa | 0.1012 ± 0.0013
303.36 K, 9753 kPa | 0.09097 ± 0.0012
303.36 K, 9758 kPa | 0.09104 ± 0.0012
303.36 K, 27804 kPa | 0.0984 ± 0.0013
303.37 K, 27811 kPa | 0.09842 ± 0.0013
303.44 K, 4916 kPa | 0.08869 ± 0.0011
303.44 K, 4920 kPa | 0.08879 ± 0.0011
303.44 K, 21579 kPa | 0.09595 ± 0.0012
303.44 K, 21587 kPa | 0.09607 ± 0.0012
303.51 K, 294 kPa | 0.08655 ± 0.0011
303.51 K, 297 kPa | 0.08645 ± 0.0011
303.54 K, 15365 kPa | 0.09343 ± 0.0012
303.54 K, 15366 kPa | 0.09328 ± 0.0012
321.62 K, 4352 kPa | 0.08273 ± 0.0011
321.63 K, 4356 kPa | 0.08308 ± 0.0011
321.64 K, 337 kPa | 0.08036 ± 0.001
321.65 K, 338 kPa | 0.08047 ± 0.001
321.65 K, 69905 kPa | 0.1085 ± 0.0014
321.65 K, 69906 kPa | 0.1083 ± 0.0014
321.68 K, 58591 kPa | 0.1047 ± 0.0013
321.68 K, 58592 kPa | 0.1049 ± 0.0013
321.69 K, 40553 kPa | 0.09923 ± 0.0013
321.7 K, 40558 kPa | 0.09918 ± 0.0013
